Experiments:
[1] = biological target: T1, mutant TNF-R1 (Homo sapiens, UniProt P19438, F141E/Q111E); assay: Isothermal titration calorimetry, binding to mutant TNF-R1 (82E, 112E); conditions: ITC, TNF-R1 mutated to 82E and 112E
T1 construct: The ectodomain of wild type TNF receptor 1 was obtained by PCR from pKP13; made in house
T1 sequence (P19438 30-211 Q111E/F141E limits assumed): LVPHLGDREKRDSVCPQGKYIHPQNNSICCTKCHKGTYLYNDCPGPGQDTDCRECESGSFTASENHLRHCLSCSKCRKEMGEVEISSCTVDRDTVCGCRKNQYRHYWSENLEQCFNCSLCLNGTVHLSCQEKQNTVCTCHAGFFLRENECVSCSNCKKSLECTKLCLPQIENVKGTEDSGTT
Excerpt: The ectodomain of wild type TNF receptor 1 was obtained by PCR from pKP13 (as described in Beutler et al., Annu. Rev. Biochem. 57, 505-518 (1988)) with 5′ primer AAAAAACATATGTACCCCTCAGGGGTTATTGG (SEQ ID NO:2) and 3′ primer CCGCTCGAGTCAATGATGATG ATGATG ATGTGTGGTGCCTGAGTCCTCAG, (SEQ ID NO:3) and constructed into PET21 (Novagen, San Diego, Calif.) between Nde1 and XhoT, verified by sequencing. Mutant TNF receptor 1 was obtained from site-directed mutagenesis by using a QuikChange mutagenesis kit (Stratagene, La Jolla, Calif.). The plasmid was then transformed into Origami™ (DE3) (Novagen, San Diego, Calif.). The cells were grown until A600 was 0.6 and were induced by addition of 0.2 mM of IPTG. The cells were then induced for 3 h and harvested by centrifugation at 3500 rpm for 10 min. The wild type and mutant TNF-R1 were all expressed in the inclusion bodies of the cells and were extracted and refolded as described in Lin et al., Biotechniques 11, 748 (December 1991). […]
The binding thermodynamics of inhibitors to the TNF receptor was measured by isothermal titration calorimetry (ITC) using a high-precision VP-ITC titration calorimetric system (MicroCal Inc, Northampton, Mass.). […] Data were analyzed and fitted using the data analysis software supplied by MicroCal (Origin version 5.0).

[2] = test system: L929 cells; assay: Inhibition of TNF-α mediated cytolysis of L929 cells (Alamar Blue); assay type: cell-based, murine; conditions: TNF-α 100 pg/mL, actinomycin D 1 μM
Excerpt: L929 cultured murine fibroblasts cells were obtained from American Type Culture Collection (Manassas, Va.). Tissue culture reagents were from Invitrogen or Sigma-Aldrich. TNF-α and Actinomycin D were from Sigma-Aldrich. Alamar Blue reagents (Cell Titer Blue™) were from Promega. The test compounds I-1 through I-16, II-1 through II-8, and III-1 through III-3 were obtained commercially or can be prepared as described above. The test compounds were individually dissolved in dimethylsulfoxide (DMSO). The test compounds were maintained at 4° C. when not in use. Other reagents were high-purity (ACS-grade, HPLC-grade, MilliQ water, or similar).
Stock L929 cells were grown on tissue culture plastic in complete DMEM (Dulbecco's Modified Eagles Medium) supplemented with 10% FBS (Fetal Bovine Serum), NEAA (non-essential amino acids), and glutamine. L929 cells were plated using the same medium on 96-well tissue culture plates at high density (i.e., ˜4×10^4 cells/well, or similar) before use.
Approximately 20 h after plating, the L929 cells on 96-well plates were re-fed with fresh medium containing one of the test compounds in a concentration selected from 100 μM, 50 μM, 25 μM as a “pre-treatment.” Approximately 30-60 min later, samples were treated with an additional amount of test compound (in the same amount and at the same concentration as the pre-treatment) prepared in medium containing TNF-α (200 pg/mL), and actinomycin D (2 μM). The final concentration of TNF-α in assays was 100 pg/mL. The final concentration of actinomycin D in assays was 1 μM. The plates were incubated for an additional 22-23 h, the Alamar Blue assay reagents were added and metabolic cell viability was determined from reduction of a fluorogenic Alamar Blue derivative.
The temperature was maintained at 37° C. with 5% CO2 and humidified. The metabolic viability was measured 1-2 h after addition of assay reagents/Alamar Blue derivative using TECAN SaFire fluorescence plate reader (Tecan Group Ltd., Maennedorf, Switzerland).
Inhibition of TNF-α induced cytolysis by a test compound (X) at a given concentration (y) was calculated as follows: […]

## CC(=O)Oc1ccc(C(C)(c2ccc(OC(C)=O)cc2)c2ccc(OC(C)=O)cc2)cc1 [Compound I-9, 1,1,1-Tris-(4-acetoxyphenyl)ethane]
[1]
  binding to the mutant receptor: no longer bound
[2]; 25 μM compound
  % Inhibition at: 25 μM: 37.2%
[2]; 50 μM compound
  % Inhibition at: 50 μM: 65.2%
[2]; 100 μM compound
  % Inhibition at: 100μM: 50.9%

Reference: patent US9096607B2, “Tumor necrosis factor inhibitors” (THE TRUSTEES OF THE UNIVERSITY OF PENNSYLVANIA, priority 2005, dated 2015)
